Measured values: patent publication US5126336A, “Antibiotic C-3 catechol-substituted cephalosporin compounds, compositions and method of use thereof” (Bristol-Myers Squibb Company, priority 1990, dated 1992)
Converted amounts (≈) assume the structure as drawn. Like-named read-outs stand apart in the source and are kept apart here.

Experiments:
E. coli Juhl = test: In vivo antibacterial activity, E. coli Juhl infection; details: mice, im just after bacterial challenge
Protocol: (§1) In vivo antibacterial activity was determined against three bacterial infections (S. aureus Smith, E. coli Juhl and P. aeruginosa A9843A) by intramuscular administration to mice just after the bacterial challenge. PD50 values are summarized in Table 3 in comparsion with the MIC values against the corresponding organisms.

[1] = test system: Gn-Ia: Cephalothin(CET)-sensitive E. coli (2), Kl. pneumoniae (1) and Pr. mirabilis (2); test: MIC, two-fold serial agar dilution, Gn-Ia; format: cell-based; details: 5 strains, Mueller-Hinton agar
Protocol: (§2) Minimum inhibitory concentrations (MICs) of the present series of cephalosporins were determined against 32 strains of test organisms by two-fold serial agar dilution method in Mueller-Hinton agar. Geometric means of MICs were calculated against six groups of the test organisms which are classified as follows and summarized in Table 1.
Gn-Ia Cephalothin(CET)-sensitive E. coli (2), Kl.
pneumoniae (1) and Pr. mirabilis (2).

[2] = test system: Gn-Ib: Cephalothin(CET)-resistant E. coli (3) and Kl. pneumoniae (2); test: MIC, two-fold serial agar dilution, Gn-Ib; format: cell-based; details: Mueller-Hinton agar
Protocol: as §2
Gn-Ib Cephalothin(CET)-resistant E. coli (3) and Kl.

P. aeruginosa A9843A [3] = test: In vivo antibacterial activity, P. aeruginosa A9843A infection; set-up: species or system mice
Protocol: as §1

S. aureus Smith [4] = test: In vivo antibacterial activity, S. aureus Smith infection; details: mice, im just after bacterial challenge
Protocol: as §1

E. coli Juhl A15119 = test: MIC, agar dilution; format: cell-based; details: E. coli Juhl (Table 3)
Protocol: as §2, §1
(§3) Medium; MuellerHinton agar (pH = 7.2)
(§4) Incubation temperature: 32° C., 18 hr
(§5) Inoculum size; 10^6 cells/ml

S. aureus Smith [5] = test: MIC, agar dilution; format: cell-based; details: S. aureus Smith (Table 3)
Protocol: as §2, §1, §3, §4, §5

P. aeruginosa A9843A [6] = test: MIC, agar dilution; format: cell-based
Protocol: as §2, §1, §3, §4, §5

[7] = test system: Gp-Ib: Penicillin(PC)-resistant S. aureus (5); test: MIC, two-fold serial agar dilution, Gp-Ib; format: cell-based; details: 5 strains, Mueller-Hinton agar
Protocol: as §2
Gp-Ib Penicillin(PC)-resistant S. aureus (5).

[8] = test system: Gn-III: Ps. aeruginosa (7); test: MIC, two-fold serial agar dilution, Gn-III; format: cell-based; details: Gn-III, 7 strains, Mueller-Hinton agar
Protocol: as §2
Gn-III Ps. aeruginosa (7).

[9] = test system: Gp-Ia: Penicillin(PC)-sensitive S. aureus (5 strains); test: MIC, two-fold serial agar dilution, Gp-Ia; format: cell-based; details: Mueller-Hinton agar
Protocol: as §2
Gp-Ia Penicillin(PC)-sensitive S. aureus (5 strains).

[10] = test system: Gn-II: M.morganii (1), Ent. cloacae (2) and Ser. marcescens (2); test: MIC, two-fold serial agar dilution, Gn-II; format: cell-based
Protocol: as §2
Gn-II M.morganii (1), Ent. cloacae (2) and Ser.

[11] = read-out: Geometric mean of MIC
[12] = Staphylococcus aureus, read-out: Geometric mean of MIC

Q: How did the PD50 (E. coli Juhl) turn out when `CO/N=C(\C(=O)NC1C(=O)N2C(C(=O)O)=C(/C=C/Cn3ccc4cc(=O)c(O)cc-4c3)CS[C@H]12)c1csc(N)n1` (stereo partly drawn) [Iw, 7-[(Z)-2-(2-Aminothiazol-4-yl)-2-methoxyimino-acetamido]-3-[(E)-3-(2,6-dihydro-7-hydroxy-6-oxo-isoquino-lin-2-yl)-1-propen-1-yl]-3-cephem-4-carboxylic acid] was run?
A: 0.19 mg/kg

Q: What about the “Geometric mean of MIC” value [1] of the same compound?
A: 0.015 µg/mL

Q: What about the “Geometric mean of MIC” value ([2]; Gn-Ib, 5 strains) of the same compound?
A: 0.022 µg/mL

Q: And the PD50 (P. aeruginosa A9843A [3]; mice, im just after bacterial challenge, P. aeruginosa 9843A)?
A: 0.39 mg/kg

Q: And the PD50 (S. aureus Smith [4])?
A: 0.18 mg/kg

Q: And the MIC (E. coli Juhl A15119)?
A: 0.1 µg/mL (≈ 0.172 µM)

Q: What about the MIC (S. aureus Smith [5]) of the same compound?
A: 0.8 µg/mL (≈ 1.37 µM)

Q: And the MIC (P. aeruginosa A9843A [6]; P. aeruginosa 9843A (Table 3))?
A: 12.5 µg/mL (≈ 21.5 µM)

Q: What about the “Geometric mean of MIC” value [7] of the same compound?
A: 1.4 µg/mL

Q: What about the “Geometric mean of MIC” value [8] of the same compound?
A: 13.0 µg/mL

Q: And the “Geometric mean of MIC” value [9]?
A: 0.8 µg/mL

Q: What about the “Geometric mean of MIC” value ([10]; Gn-II, 5 strains, Mueller-Hinton agar) of the same compound?
A: 0.13 µg/mL

Q: Which results are given for `CO/N=C(\C(=O)NC1C(=O)N2C(C(=O)[O-])=C(/C=C/C[N+]3(C)Cc4cc(O)c(O)cc4C3)CS[C@H]12)c1csc(N)n1` (stereo partly drawn) [Compound Id, 7-[(Z)-2-(2-aminothiazol-4-yl)-2-methoxyiminoacetamido]-3-[(E)-3-(5,6-dihydroxy-2-methyl-2-isoindolinio)-1-propen-1-yl]-3-cephem-4-carboxylate]?
A: ED50 (E. coli Juhl; Escherichia coli, read-out: PD50): 0.012 mg/kg; MIC [1, 11]: 0.15 µg/mL (≈ 0.256 µM); MIC ([2]; Escherichia coli, read-out: Geometric mean of MIC, Gn-Ib, 5 strains): 0.46 µg/mL (≈ 0.784 µM); ED50 (P. aeruginosa A9843A [3]; Pseudomonas aeruginosa, A9843A, in Mus musculus, im, read-out: PD50): 6.8 mg/kg; ED50 (S. aureus Smith [4]; Staphylococcus aureus, read-out: PD50): 0.33 mg/kg; MIC (E. coli Juhl A15119; Escherichia coli, JUHLA15119, 18 h, read-out: MIC): 0.4 µg/mL (≈ 0.682 µM); MIC (S. aureus Smith [5]; Staphylococcus aureus, 18 h, read-out: MIC): 1.6 µg/mL (≈ 2.73 µM); MIC (P. aeruginosa A9843A [6]; Pseudomonas aeruginosa, A9843A, 18 h): 3.1 µg/mL (≈ 5.28 µM); MIC [7, 12]: 3.1 µg/mL (≈ 5.28 µM); MIC ([8]; Pseudomonas aeruginosa, read-out: Geometric mean of MIC): 2.6 µg/mL (≈ 4.43 µM); MIC [9, 12]: 1.6 µg/mL (≈ 2.73 µM); MIC [10, 11]: 0.79 µg/mL (≈ 1.35 µM)
